Earlier results in the CATMoS acute toxicity set (Mansouri et al. 2021).
Several values for one entry are separate records, joined by “and”; a condition that tells them apart may be missing. Equal entries are not always repeated.

Assay: rat acute oral toxicity
Conditions: in vivo
From the text: […]The data set underlying the modeling effort for this project was initially compiled by NICEATM and U.S. EPA’s CCTE. Briefly, LD50 data were collected from rat acute oral systemic toxicity tests, including limit tests, ranges/confidence intervals, and discrete LD50 values. The full data set included 21,200 LD50 entries for 15,688 substances. […] Data were reviewed to ensure that LD50 values with obvious errors in the extracted data such as unit conversion errors (e.g., comma and decimal separator misplacements) were either fixed or removed. After this review, 16,209 LD50 values remained. Many of the chemicals represented had multiple LD50 entries, requiring that a single representative value per Chemical Abstracts Service Registry Number (CASRN) identifier be defined to facilitate modeling efforts. Based on ATWG feedback and to define the representative LD50 as a protective value while accounting for the distribution across multiple LD50s, the median of the lowest quartile was computed using only discrete LD50 values (omitting limit test data and range and confidence interval data). A detailed summary of the data compilation is available online on the NICEATM webpage dedicated to the collaborative modeling project (NTP 2020).
[…][…] For categorical designations, limit test and range/confidence interval LD50 data were integrated wherever possible. As such, the number of chemicals with end point values/calls varies across the modeling end points (Table 3) based on whether chemicals had representative LD50 values and/or other data. If a chemical had both, the representative value was used to determine categorical calls rather than limit test data. Some data were useable only for certain end points and categories depending on the thresholds. For example, ranges that spanned multiple hazard categories were considered only for the binary (very toxic/nontoxic) end points and omitted from rendering a determination for hazard category assignment.
[…]The final data set comprising 11,992 chemicals was split into training and evaluation sets […], respectively. This process was performed semirandomly by ordering chemicals based on the five end points (categorical and continuous LD50 values) and partitioning every fourth record into the evaluation set accordingly. This approach was taken to ensure an equivalent distribution of the LD50 values and the different hazard categories between the training and the evaluation sets without supervised sampling of the chemicals based on structures (Figure 1A). The sources of the chemical structures were also kept equivalent between the two sets, with chemical structures obtained from DSSTox, being the highest quality, representing over 75% of each set (Figure 1B).

Row | SMILES | LD50
1 | O=C[C@H](O)[C@@H](O)[C@H](O)[C@H](O)CO | 25800 mg/kg
2 | CCOP(=O)(Cc1ccc(-c2nc3ccccc3s2)cc1)OCC | 1560 mg/kg
3 | CC(C)(C)c1cc([N+](=O)[O-])cc(C(C)(C)C)c1O | 250 mg/kg
4 | CCO[Si](C)(C)c1ccccc1 | 2460 mg/kg
5 | COC(C)(C)CCCC(C)C(C)O (stereo not drawn) | 4490 mg/kg
6 | Nc1cc(S(=O)(=O)O)cc2cc(S(=O)(=O)O)c(/N=N\c3ccc(-c4ccc(/N=N/c5c(S(=O)(=O)O)cc6cc(S(=O)(=O)O)cc(N)c6c5O)cc4)cc3)c(O)c12 | 8760 mg/kg
7 | COP(=S)(OC)SCSCCOC(N)=O | 44 mg/kg
8 | Cc1c(Cl)c(Cl)c(Cl)c(C(Cl)Cl)c1Cl | 2920 mg/kg
9 | CN(C)c1ccncc1 | 250 mg/kg
10 | CC(=O)SCCCCCCSC(C)=O | 504 mg/kg
11 | O=NN(CCCl)C(=O)NC1CCCCC1 | 70 mg/kg
12 | Oc1ccc(Sc2ccc(O)cc2)cc1 | 3360 mg/kg
13 | COC(=O)C1=C(C#N)NC(C)=C(C(=O)OC(C)C)C1c1cccc([N+](=O)[O-])c1 (stereo not drawn) | 1560 mg/kg
14 | Cc1ncc2c(c1O)CSSC2 | 1110 mg/kg
15 | CCN(CC)CCNC(=O)c1ccc(N)cc1 | 1950 mg/kg
16 | CCCCNC(=N)NC(=N)N | 320 mg/kg
17 | C/C=C\c1ccc(OCc2ccccc2)c(OC)c1 | 4900 mg/kg
18 | COP(=O)(OC)SC(C)C | 108 mg/kg
19 | CCOC(=O)C1=C(C)NC(C)=C(C(=O)OCCN2CCCCC2)C1c1cccc([N+](=O)[O-])c1 (stereo not drawn) | 363 mg/kg
20 | CNC(=O)Oc1ccccc1C1OCC(C)O1 (stereo not drawn) | 110 mg/kg
21 | CC(=O)c1cccc([N+](=O)[O-])c1 | 3250 mg/kg

Row | SMILES | LD50
22 | N#CC1CC=CCC1 (stereo not drawn) | 460 mg/kg
23 | C#CCOc1ccc(N)cc1C(=O)NCCCC | 864 mg/kg
24 | CCOC(C1=NCCCN1)c1ccc(Cl)c(Cl)c1 (stereo not drawn) | 370 mg/kg
25 | CCN(CC)S(=O)(=O)c1ccc(OP(=S)(OC)OC)cc1Cl | 50 mg/kg
26 | CC(C)=C1CCC(C)CC1=O (stereo not drawn) | 470 mg/kg
27 | O=C(Oc1ccccc1)c1ccccc1C(=O)Oc1ccccc1 | 8000 mg/kg
28 | CCN(CC)S(=O)(=O)CCNC(=O)N(CCCl)N=O | 60 mg/kg
29 | c1cc2c(cc1C1CCCCC1)c1c3n2CCNC3CCC1 (stereo not drawn) | 3070 mg/kg
30 | O=C(O)C1=CC(=CC=[N+]2C(C(=O)O)=Cc3cc(O)c(O)cc32)CC(C(=O)[O-])N1 (stereo not drawn) | 3140 mg/kg
31 | NC1CCCC(N)C1 (stereo not drawn) | 390 mg/kg
32 | CCCCc1c(C)nc2cccc(C)n2c1=O | 1100 mg/kg
33 | Cc1cn([C@H]2C[C@H](N=[N+]=[N-])[C@@H](CO)O2)c(=O)[nH]c1=O | 3080 mg/kg
34 | O=C(C(F)(F)Cl)C(F)(Cl)Cl | 277 mg/kg
35 | C=CCSC1=NCCS1 | 110 mg/kg
36 | CC1(C)CC(=O)CC(C)(C)N1[O] | 1460 mg/kg
37 | COc1c(Cl)ccc(Cl)c1C(=O)O | 6760 mg/kg and 2630 mg/kg
38 | C[C@H](NC(=O)[C@H](C)NC(=O)[C@@H](N)CCP(C)(=O)O)C(=O)O | 268 mg/kg
39 | O=[N+]([O-])c1ccc(Oc2c(Cl)cc(Cl)cc2Cl)cc1 | 10800 mg/kg
40 | CCCCOC(=O)C(Cl)(Cl)C(Cl)=C(Cl)Cl | 2090 mg/kg
41 | CNc1nsc2ccccc12 | 576 mg/kg
42 | O=C(O)Cc1ccc(C2CCCCC2)c(Cl)c1 | 83 mg/kg

Row | SMILES | LD50
43 | Fc1c(Cl)c(Cl)c(Cl)c2[nH]c(C(F)(F)F)nc12 | 0.847 mg/kg
44 | C=CCI | 10 mg/kg
45 | COc1cc(Br)c2oc(C3CCNCC3)cc2c1 | 310 mg/kg
46 | CC(O)c1cccc(N)c1 (stereo not drawn) | 3100 mg/kg
47 | Cc1ccc(CO)cc1 | 3900 mg/kg
48 | CCOc1ccc(-n2c(C)nc3ccccc3c2=O)cc1 | 4800 mg/kg
49 | CC(=O)c1ccc2c(c1)N(CCCN1CCN(C)CC1)c1ccccc1S2 | 650 mg/kg
50 | CCOC(=O)COc1ccc2c(C)c(CCN(CC)CC)c(=O)oc2c1Cl | 1250 mg/kg
51 | O=C(O)C1CCCCC1 | 3260 mg/kg
52 | O=C(CN1CCOCC1)N/N=C/c1ccc([N+](=O)[O-])o1 | 420 mg/kg
53 | CN(C)c1ccc(SC#N)cc1 | 500 mg/kg
54 | Cc1ccc2oc(=O)ccc2c1 | 1680 mg/kg
55 | N#Cc1cccc(C#N)c1 | 860 mg/kg
56 | Clc1cc2c(c(Cl)c1Cl)Oc1c(Cl)c(Cl)c(Cl)c(Cl)c1O2 | 6.33 mg/kg
57 | CCOP(=O)(OCC)SCS(=O)(=O)CC | 0.5 mg/kg
58 | c1cn[nH]c1 | 1010 mg/kg
59 | COS(=O)(=O)c1ccccc1 | 740 mg/kg
60 | COC(OC)C(C)c1ccccc1 (stereo not drawn) | 1850 mg/kg
61 | COc1cc2ccc(=O)oc2cc1O | 3800 mg/kg
62 | CN(C)C(=S)SSC(=S)NCCNC(=S)SSC(=S)N(C)C | 3000 mg/kg
63 | COP(=S)(OC)SCOC(C)=O | 93 mg/kg
